Test results as given in patent US12053545B2, “Transdermal solvent system and methods of use” (Donaghys Limited, priority 2019, dated 2024).

Test: Stability of dual anthelmintic solvent system, accelerated aging at 40° C. for 12 months
Assay type: physicochemical
Conditions: for Concentration after 6 months / Concentration after 12 months: active in solvent system of Example 4, 40° C. accelerated aging; for Initial concentration: active in solvent system of Example 4, initial

| Compound | Concentration after 6 months | Concentration after 12 months | Initial concentration |
| --- | --- | --- | --- |
| c1ccc([C@H]2CN3CCSC3=N2)cc1 [Levamisole] | 25.45 g/L | 24.1 g/L | 27.15 g/L |
| Eprinomectin | 15.8 g/L | 14.6 g/L | 16.5 g/L |
